{
  "source": "patent US20100069345A1",
  "about": "“Lanthanide-porphyrin complexes as anti-tumor agents” (priority 2005, published 2010)",
  "key": {"[1]": {"system": "human cervical epitheloid carcinoma cells (HeLa)", "test": "MTT cell viability assay, HeLa", "format": "cell-based", "conditions": "for IC50: MTT, 37° C., 48 h, mean ± SD of three experiments; for IC50 ratio cisplatin/complex, HeLa: IC50 of cisplatin divided by IC50 of complex", "description": "(§1) Human cervical epitheloid carcinoma cells (HeLa), human hepatocellular carcinoma cells (HepG2 and Hep3B), human breast cancer cells (MCF-7), human coloadenocarcinoma cells (HCT-8), and normal human lung fibroblast cells (CCD-19Lu) were purchased from American Type Culture Collection (ATCC) Rockville, Md., USA. The human hepatocellular cancinoma cells QGY-7703, and the multi-drug resistant cell line QGY-TR50 derived from QGY-7703, were generously provided by Prof. Yong Xie (The Hong Kong University of Science and Technology, Hong Kong PRC). QGY-TR50 cells were isolated and cultured as described (J. Zhou, S. C. Cheng, D. Luo, Y. Xie Biochem. Biophys. Res. Commun. 2001, 280, 1237-1242). Human nasopharyngeal carcinoma cells (SUNE1 and its cisplatin-resistant variant—CNE2) were derived from poorly differentiated NPC in Chinese patients and were generously provided by Dr. S. W. Tsao (The University of Hong Kong, Hong Kong PRC). Cell culture flasks and 96-well microtitre plates were from Nalge Nunc Int. Culture medium, other medium constituents and phosphate buffer saline (PBS) were obtained by Gibco BRL Rockville, Md., USA. Cell Proliferation kit I (MTT) was purchased from Roche. Mannheim, Germany."}, "[2]": {"system": "human coloadenocarcinoma cells (HCT-8)", "test": "MTT cell viability assay, HCT-8", "format": "cell-based", "conditions": "for IC50: MTT, 37° C., 48 h, mean ± SD; for IC50 ratio cisplatin/complex, HCT-8: IC50 of cisplatin divided by IC50 of complex", "description": "as §1"}, "[3]": {"system": "human nasopharyngeal carcinoma cells (SUNE1)", "test": "MTT cell viability assay, SUNE1", "format": "cell-based", "conditions": "for IC50: MTT, 37° C., 48 h, mean ± SD; for IC50 ratio cisplatin/complex, SUNE1: IC50 of cisplatin divided by IC50 of complex", "description": "as §1"}, "[4]": {"system": "cisplatin-resistant variant (CNE2) of human nasopharyngeal carcinoma cells", "test": "MTT cell viability assay, CNE2", "format": "cell-based", "conditions": "for IC50: MTT, 37° C., 48 h, mean ± SD", "description": "as §1"}, "[5]": {"system": "human breast cancer cells (MCF-7)", "test": "MTT cell viability assay, MCF-7", "format": "cell-based", "conditions": "MTT, 37° C., 48 h; mean ± SD", "description": "as §1"}, "[6]": {"system": "normal human lung fibroblast cells (CCD-19Lu)", "test": "MTT cell viability assay, CCD-19Lu", "format": "cell-based", "conditions": "for IC50: MTT, 37° C., 48 h, mean ± SD; for IC50 ratio cisplatin/complex, CCD-19Lu: IC50 of cisplatin divided by IC50 of complex", "description": "as §1"}, "[7]": {"system": "human hepatocellular carcinoma cells (HepG2)", "test": "MTT cell viability assay, HepG2", "format": "cell-based", "conditions": "for IC50: MTT, 37° C., 48 h, mean ± SD", "description": "as §1"}, "[8]": {"system": "multi-drug resistant cell line QGY-TR50", "test": "MTT cell viability assay, QGY-TR50", "format": "cell-based, human", "conditions": "MTT, 37° C., 48 h; mean ± SD", "description": "as §1"}, "[9]": {"system": "human hepatocellular cancinoma cells QGY-7703", "test": "MTT cell viability assay, QGY-7703", "format": "cell-based", "conditions": "MTT, 37° C., 48 h; mean ± SD", "description": "as §1"}, "[10]": {"system": "human hepatocellular carcinoma cells (Hep3B)", "test": "MTT cell viability assay, Hep3B", "format": "cell-based", "conditions": "37° C., 48 h, mean ± SD", "description": "as §1"}, "[11]": {"system": "HeLa cells", "test": "Effect of 3-MA on 1-induced cytotoxicity (MTT)", "format": "cell-based, human", "conditions": "3-MA 10 mM", "method": "HeLa cells were pre-treated with 3-MA (10 mM) for 1 h, and then with 1 for 24 h as indicated. Cell viability was measured using MTT assay *, P<0.001. Effect of 3-MA on 1-induced cytotoxicity. Cells were seeded on 96-well microtitre plates (8×10^3 cells per well). After overnight incubation, the cells were pre-incubated with 3-methyladenine (3-MA, 10 mM) for 1 hour and then in the presence of 1 (DMSO<1%) for 24 h. Cell viability was measured by MTT assay as described before."}, "[12]": {"test": "Stability by UV-visible in DMSO/Tris buffer", "format": "physicochemical", "conditions": "DMSO/Tris buffer solution (1:9), 24 h, room temperature; complex 1 3 μM, complex 2b 7 μM", "method": "UV-visible experiments. The absorption spectra of 3 μM of complex 1 in DMSO/Tris buffer solution (1:9) were monitored for 24 h. […] The complex was monitored over 24 h at room temperature and about 23% decrease in the Soret band intensity was recorded without any significant spectral shift in both Soret and Q-bands (FIG. 5). The absorption spectra of 7 μM of complex 2b in DMSO/Tris buffer solution (1:9) were also monitored for 24 h."}, "[13]": {"test": "Stability by UV-visible in presence of reduced glutathione", "format": "physicochemical", "conditions": "6 mM GSH in DMSO/Tris buffer solution (1:9)", "method": "Moreover, concomitant band broadening in spectrum of complex 1 was observed after 24 h. No significant spectral shift and formation of new absorption band were observed. […] Comparing with the spectra of complex 1, the decrease in Soret band intensity of complex 2b is less significant. The intensities are only found to decrease in 2% and 19% after 2 h and 24 h, respectively. Also, there is no significant spectral shift and formation of new absorption band were observed (FIG. 8)."}, "[14]": {"system": "calf thymus DNA", "test": "Absorption titration with calf thymus DNA", "format": "binding", "conditions": "Tris buffer", "method": "The calf thymus DNA was purchased from Sigma-Aldrich Chemical Co. and was purified by phenol-chloroform extraction. The DNA was dissolved in buffer (5 mM Tris, 5 mM NaCl, pH 7.2). The concentration (per base pair) or calf thymus DNA was determined spectophotometrically on the basic of ε260, 13200 M^−1cm^−1bp.\nAbsorption Titration. Studying the interaction between drugs and DNA is imperative to pharmaceutical chemistry. Since complexation between a ligand molecule and a nucleic acid leads to optical changes, its binding can be studied using spectroscopic methods like fluorescence and electronic absorption spectroscopy (C. V. Kumar, E. H. Asuncion, J. Am. Chem. Soc. 1993, 115, 8547-8553). The binding interactions of lanthanide (III) porphyrin complexes with calf thymus DNA were investigated using UV-vis spectroscopy and depicted in FIGS. 9 and 10 (selected absorption curves were shown for clear plot). By monitoring wavelengths at 410 nm (complex 1) and 430 nm (complex 2b), successive additions of calf thymus DNA to the respective complexes in Tris buffer solution containing <5% DMSO were done until saturation. Moderate hyprochromicities of 27% and 23% in complexes 1 and 2b were found without significant bathochromic spectral shift. […] The values of binding constant K were calculated from a plot of D/Δεap versus D based on the following equation:\nWhere D is the concentration of DNA, Δεap=|ΔεA−ΔεB| wherein εA=Aobs/[complex], and Δε=|ΔεB−ΔεF|; εB and εF correspond to the extinction coefficients of DNA-bound lanthanide(III) porphyrin complex adduct and its free complex, respectively. By monitoring absorbance at 410 nm (complex 1) and 430 nm (complex 2b), plots of D/Δεap against D are inserted in FIGS. 9 and 10. Linear curves in two graphs were plotted with slopes of 4.63×10^−5 (complex 1) and 3.60×10^−5 (complex 2b) (both R=0.99)."}, "[15]": {"system": "HeLa cells", "test": "Confocal microscopy with AO/EB staining", "format": "cell-based, human", "conditions": "complex 1 0.2 μM 20 h, complex 2b 10 μM 16 h", "description": "Confocal Microscopic Experiment. By examining cell morphology under scanning confocal microscopy, the type of cell death can be distinguished. Early phase of apoptosis is characterized by the formation of apoptotic bodies when the integrity of the cell membrane is maintained without cell lysis. On the other hand, necrosis is characterized by cell lyses with the leaking out of internal cellular components such as DNA. With ethidium bromide (DNA stain) and acridine orange (cell membrane stain) as staining agents, normal, apoptotic and necrotic cells can be distinguished under laser confocal microscopy (Chan et. al., Inorg. Chem. 2002, 41, 3161-3171)."}, "[16]": {"conditions": "IC50 of cisplatin divided by IC50 of complex"}},
  "data": [
    {"compound": "N.N.[Cl][Pt][Cl]", "note": "[Cisplatin, cis-diamminedichloroplatinum[II], reference compound]", "values": [
      {"measurement": "IC50", "setting": "[1]", "result": "14.2 ± 8.2", "unit": "µM"},
      {"measurement": "IC50", "setting": "[2]", "result": "26.1 ± 2.1", "unit": "µM"},
      {"measurement": "IC50", "setting": "[3]", "result": "11.8 ± 1.2", "unit": "µM"},
      {"measurement": "IC50", "setting": "[4]", "result": "57.6 ± 4.6", "unit": "µM"},
      {"measurement": "IC50", "setting": "[5]", "result": "35.4 ± 5", "unit": "µM"},
      {"measurement": "IC50", "setting": "[6]", "result": "90.6 ± 42.3", "unit": "µM"},
      {"measurement": "IC50", "setting": "[7]", "result": "4.76 ± 0.7", "unit": "µM"},
      {"measurement": "IC50", "setting": "[8]", "result": "32.6 ± 1.94", "unit": "µM"},
      {"measurement": "IC50", "setting": "[9]", "result": "45.8 ± 4.13", "unit": "µM"},
      {"measurement": "IC50", "setting": "[10]", "result": "39.8 ± 2.38", "unit": "µM"}
    ]},
    {"compound": "C1=Cc2nc1c(-c1ccccc1)c1ccc([n-]1)c(-c1ccccc1)c1nc(c(-c3ccccc3)c3ccc([n-]3)c2-c2ccccc2)C=C1.CC(=O)C=C(C)[O-].[Yb+3]", "note": "[Complex 2a]", "values": [
      {"measurement": "IC50 ratio cisplatin/complex, HeLa", "setting": "[1]", "result": 2.1},
      {"measurement": "IC50", "setting": "[1]", "result": "6.9 ± 0.1", "unit": "µM"},
      {"measurement": "IC50 ratio cisplatin/complex, HCT-8", "setting": "[2]", "result": 1.7},
      {"measurement": "IC50", "setting": "[2]", "result": "15.2 ± 6.1", "unit": "µM"},
      {"measurement": "IC50 ratio cisplatin/complex, SUNE1", "setting": "[3]", "result": 0.7},
      {"measurement": "IC50", "setting": "[3]", "result": "16.2 ± 1.6", "unit": "µM"},
      {"measurement": "IC50", "setting": "[5]", "result": "> 100", "unit": "µM"},
      {"measurement": "IC50 ratio cisplatin/complex, CCD-19Lu", "setting": "[6]", "result": 3.6},
      {"measurement": "IC50", "setting": "[6]", "result": "25.1 ± 2.6", "unit": "µM"},
      {"measurement": "IC50 ratio cisplatin/complex, HepG2", "setting": "[7]; [16]", "result": 0.3},
      {"measurement": "IC50", "setting": "[7]", "result": "17.1 ± 1.3", "unit": "µM"}
    ]},
    {"compound": "Cn1cnc(N)c2ncnc1-2", "note": "[Complex 3-MA, 3-methyladenine, reference compound]", "values": [
      {"measurement": "cell viability after pre-treatment with 3-MA alone", "setting": "[11]", "result": "did not affect cell viability"}
    ]},
    {"compound": "[Yb2(TPP)2]μ-C2O4 [Complex 2b]", "values": [
      {"measurement": "IC50 ratio cisplatin/complex, HeLa", "setting": "[1]", "result": 7.0},
      {"measurement": "IC50", "setting": "[1]", "result": "2.1 ± 0.3", "unit": "µM"},
      {"measurement": "IC50 ratio cisplatin/complex, HCT-8", "setting": "[2]", "result": 4.6},
      {"measurement": "IC50", "setting": "[2]", "result": "5.6 ± 1.5", "unit": "µM"},
      {"measurement": "IC50 ratio cisplatin/complex, SUNE1", "setting": "[3]", "result": 1.2},
      {"measurement": "IC50", "setting": "[3]", "result": "9.4 ± 0.3", "unit": "µM"},
      {"measurement": "IC50 ratio cisplatin/complex, CNE2", "setting": "[4]; [16]", "result": 3.4},
      {"measurement": "IC50", "setting": "[4]", "result": "16.8 ± 0.01", "unit": "µM"},
      {"measurement": "IC50", "setting": "[5]", "result": "> 100", "unit": "µM"},
      {"measurement": "IC50 ratio cisplatin/complex, CCD-19Lu", "setting": "[6]", "result": 5.6},
      {"measurement": "IC50", "setting": "[6]", "result": "16 ± 2.9", "unit": "µM"},
      {"measurement": "decrease in Soret band intensity", "setting": "[12]", "result": 5, "unit": "%"},
      {"measurement": "decrease in Soret band intensity, reduced glutathione, 2 h", "setting": "[13]; 2 h", "result": 2, "unit": "%"},
      {"measurement": "decrease in Soret band intensity, reduced glutathione, 24 h", "setting": "[13]; 24 h", "result": 19, "unit": "%"},
      {"measurement": "hyprochromicity on addition of calf thymus DNA", "setting": "[14]; <5% DMSO, until saturation, 410 nm (1), 430 nm (2b)", "result": 23, "unit": "%"},
      {"measurement": "binding constant K with calf thymus DNA", "setting": "[14]; UV-vis absorption titration, 20° C.", "result": "(5.49±0.8)×10^5 mol^−1dm^3"},
      {"measurement": "cell morphology (type of cell death) under confocal microscopy", "setting": "[15]", "result": "both living and apoptotic cells were observed"}
    ]}
  ]
}
